Consider five molecules from publication PMC8153121, “N-Alkylation of Anthracycline Antibiotics by Natural Sesquiterpene Lactones as a Way to Obtain Antitumor Agents with Reduced Side Effects” (Biomedicines, 2021).

Read-outs that look alike come from different tables or passages of the source.

Series [1] deals with HeLa cervical tumor cell line. The experiment in a line: Glycolysis stress test (Seahorse, extracellular acidification rate). It counts as cell-based. The note with it: HeLa cells, test substances 30 μM. The procedure:
The ability of the studied compounds to modulate anaerobic glycolysis was investigated using the Agilent Seahorse XF96e Analyzer (Seahorse Bioscience, Billerica, MA, USA) according to the level of hydrogen proton production in the samples on the HeLa cervical tumor cell line by the glycolysis stress test.
HeLa cells in the exponential growth phase were plated into a 96-well cell culture microplate Seahorse (the density of the cell culture was 3 × 10^4/well). After 24 h, the rate of medium extracellular acidification by cells treated with the test compounds was recorded in real time during the sequential injection of modulators: glucose (10 mM) (Dia-M, Moscow, Russia), oligomycin (1 μM) (Sigma Aldrich, Saint Louis, USA), 2-fluoro-2-deoxy-D-glucose (25 mM) (Sigma Aldrich, Saint Louis, USA). This allowed us to estimate the glycolysis intensity in cells by three main parameters of glycolytic function: glycolysis by adding saturating amounts of glucose to the system, glycolytic capacity by the introduction of oligomycin, and glycolytic reserve by using the inhibitor of this glycolysis 2-fluoro-2-deoxy-D-glucose.

In series [2] the test system is HCT116 (colon adenocarcinoma). Put plainly: MTT cell viability test, HCT116. Format: cell-based, Human. The note with it: read-out: IC50, HCT116. The procedure:
(§1) Human cell cultures of tumor origin (A549 (lung carcinoma), HCT116 (colon adenocarcinoma), MCF7 (breast cancer), RD (embryonic rhabdomyosarcoma)), and the line of non-transformed cells HEK293 (embryonic kidney) provided by the Laboratory of Tumor Cell Genetics at the N.N. Blokhin Russian Cancer Research Institute, as well as by the Institute of Cytology of the Russian Academy of Sciences, were grown in DMEM (Gibco, Scotland, UK) and MEM (Gibco, Scotland, UK) containing fetal calf serum (10% by volume) (ThermoFisher Scientific, Paisley, UK), L-glutamine (2 mM) (Gibco, Scotland, UK), and penicillin-streptomycin (1% by volume) (PanEco, Moscow, Russia).
(§2) Cellular viability was determined by the MTT test. […] After 24 h of incubation, various concentrations of the test compounds dissolved in DMSO (≤1%) were added to the cell cultures, the solvent was added to the control wells in an equal volume, and then the cells were cultured under the same conditions for 72 h. After the incubation time, MTT (3-(4,5-dimethylthiazol-2-yl)-2,5-diphenyltetrazolium bromide, 5 mg/mL) was added to each well, and the plates were further incubated for 2 h (until a characteristic color appeared). Then, the formazan granules were dissolved in DMSO.
(§3) Using a plate analyzer (Cytation3, BioTech Instruments Inc., USA), the optical density was determined at λ = 530 nm.
Background: Tetrazolium dyes change colour on reduction, which living cells bring about.

The test system of a further series is A549 (lung carcinoma). The experiment in a line: MTT cell viability test, A549. Format: cell-based, Human. The note with it: read-out: IC50, A549. The procedure: as §1, §2, §3
Series [3] relates to HEK293 (embryonic kidney). Put plainly: MTT cell viability test, non-transformed HEK293. It counts as cell-based, Human. The note with it: read-out: IC50, HEK293. The procedure: as §1, §2, §3
The target in series [4] is T1, cytochrome-c-oxidase complex of the mitochondrial respiratory chain (IV) (Rattus norvegicus, UniProt P00406+P05503+P05505).
T1 construct: Rat heart mitochondria were isolated by differential centrifugation; from tissue; host or cells: rat heart mitochondria
T1 sequence (P00406 whole entry, other chains not shown): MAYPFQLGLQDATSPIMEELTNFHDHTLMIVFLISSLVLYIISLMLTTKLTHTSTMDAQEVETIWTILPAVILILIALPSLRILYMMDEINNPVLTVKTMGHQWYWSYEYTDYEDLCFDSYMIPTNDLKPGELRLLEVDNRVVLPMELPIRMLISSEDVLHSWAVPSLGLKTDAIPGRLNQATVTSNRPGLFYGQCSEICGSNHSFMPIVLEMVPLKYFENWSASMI
T1 sequence (P05505 whole entry, other chains not shown): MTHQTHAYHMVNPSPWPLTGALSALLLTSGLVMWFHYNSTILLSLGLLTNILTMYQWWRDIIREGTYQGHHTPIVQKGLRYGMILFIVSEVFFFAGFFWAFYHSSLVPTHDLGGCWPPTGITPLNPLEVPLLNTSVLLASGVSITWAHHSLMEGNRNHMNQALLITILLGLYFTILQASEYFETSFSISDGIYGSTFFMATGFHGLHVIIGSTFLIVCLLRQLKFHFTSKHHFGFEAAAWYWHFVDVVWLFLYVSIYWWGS
Put plainly: Respiratory chain complex IV, OCR of isolated rat heart mitochondria (Seahorse). It counts as biochemical. The note with it: isolated rat heart mitochondria 10 μg/well, compounds at 30 μM. The procedure:
(§4) Rat heart mitochondria were isolated by differential centrifugation using ice-cold buffer containing KCl (120 mM) and HEPES (20 mM), pH = 7.4, and a trypsin inhibitor. The mitochondrial yield ranged from 5 to 10 mg/mL of protein in the heart sediment. Mitochondria were stored in plastic containers at 4 °C.
(§5) The effect of the compounds on the functioning of the electron transport chain complexes was carried out using an Agilent Seahorse XF96e Analyzer (Seahorse Bioscience, Billerica, MA, USA) according to their ability to change the rate of oxygen uptake by isolated rat heart mitochondria (10 μg/well). The following modulators were used: activators of complex I of the electron transport chain, NADH dehydrogenase,—glutamate/malate; rotenone (2 μM) (Sigma Aldrich, Saint Louis, USA)—a tissue respiration blocker that stops the transfer of electrons from the reduced form of NADH to cytochrome b, was used as complex I inhibitor; potassium succinate ([…]) (Dia-M, Moscow, Russia), which is a substrate of complex II of the electron transport chain, made it possible to assess mitochondrial respiration mediated by succinate dehydrogenase; complex III (ubiquinol-cytochrome c-oxidoreductase) inhibitor—a blocker of cellular respiration antimycin A (Sigma Aldrich, Saint Louis, USA), as well as ascorbate/TMPD (0.5 μM) (Sigma Aldrich, Saint Louis, USA), allowed us to evaluate the cytochrome-c-oxidase mediated respiration of organelles.

Another series concerns MCF7 (breast cancer). The experiment in a line: MTT cell viability test, MCF7. Format: cell-based, Human. The note with it: read-out: IC50, MCF7. The procedure: as §1, §2, §3
The test system of another series is rat heart mitochondria. The experiment in a line: Mitochondrial swelling. Format: biochemical. The note with it: rat heart mitochondria 0.5 mg/mL, compounds at 100 μM, Ca2+ 25 μM. The procedure:
as §4
Mitochondrial swelling was recorded by the light transmission of the rat heart mitochondrial suspension at λ = 540 nm using a Victor 3 plate analyzer (Perkin Elmer, Germany). The swelling rate was estimated as △A540/min and was calculated as the tangent of the angle of the steepest dependence curve part △A540 versus time.

For series [5], the system named is RD (embryonic rhabdomyosarcoma). The experiment in a line: MTT cell viability test, RD. The note with it: 72 h, read-out: IC50, RD. Format: cell-based, Human. The procedure:
as §1, §2, §3

Series [6] concerns the target T2, complex II of the electron transport chain (Rattus norvegicus, UniProt P21913+Q641Z9+Q6PCT8+Q920L2).
T2 construct: Rat heart mitochondria were isolated by differential centrifugation; from tissue; host or cells: rat heart mitochondria
Put plainly: Respiratory chain complex II, OCR of isolated rat heart mitochondria (Seahorse). It counts as biochemical. The note with it: isolated rat heart mitochondria 10 μg/well, compounds at 30 μM. The procedure: as §4, §5

Series [7] deals with lipid peroxidation (LPO) of rat brain homogenate. Put plainly: Lipid peroxidation of rat brain homogenate (TBA test). The note with it: rat brain homogenate 2 mg/mL, Fe2+ 500 μM, compound 100 μM. Format: biochemical. The procedure:
To obtain a brain homogenate, decapitation of rats anesthetized in advance with CO2 was performed using a guillotine. The brain was homogenized in a buffer containing KCl (120 mM) and HEPES (20 mM) (Gibco, Scotland, UK), pH = 7.4, at 4 °C and centrifuged at 1500 rpm to obtain a supernatant.
To study the effect of compounds on the process of lipid peroxidation (LPO) of rat brain homogenate, we used a modified version of the TBA test, which is based on the reaction of 2-thiobarbituric acid with the final LPO product—malonic dialdehyde (MDA). According to the experimental scheme, the well of the plate contained the studied compounds (100 μM), rat brain homogenate (2 mg/mL), as well as 500 μM ferrous iron ions (FeSO4 × […]). After 30 min of incubation at 37 °C, TBA reagent was added to all samples, incubated for 90 min at 90 °C, and centrifuged at 6000 rpm for 15 min. The optical density of the selected supernatant was measured on a Victor 3 plate analyzer (Perkin Elmer, Germany […]) at λ = 540 nm.

Setting [8] is: MTT, 72 h, non-transformed cells.

T2 sequence (Q920L2 35-656): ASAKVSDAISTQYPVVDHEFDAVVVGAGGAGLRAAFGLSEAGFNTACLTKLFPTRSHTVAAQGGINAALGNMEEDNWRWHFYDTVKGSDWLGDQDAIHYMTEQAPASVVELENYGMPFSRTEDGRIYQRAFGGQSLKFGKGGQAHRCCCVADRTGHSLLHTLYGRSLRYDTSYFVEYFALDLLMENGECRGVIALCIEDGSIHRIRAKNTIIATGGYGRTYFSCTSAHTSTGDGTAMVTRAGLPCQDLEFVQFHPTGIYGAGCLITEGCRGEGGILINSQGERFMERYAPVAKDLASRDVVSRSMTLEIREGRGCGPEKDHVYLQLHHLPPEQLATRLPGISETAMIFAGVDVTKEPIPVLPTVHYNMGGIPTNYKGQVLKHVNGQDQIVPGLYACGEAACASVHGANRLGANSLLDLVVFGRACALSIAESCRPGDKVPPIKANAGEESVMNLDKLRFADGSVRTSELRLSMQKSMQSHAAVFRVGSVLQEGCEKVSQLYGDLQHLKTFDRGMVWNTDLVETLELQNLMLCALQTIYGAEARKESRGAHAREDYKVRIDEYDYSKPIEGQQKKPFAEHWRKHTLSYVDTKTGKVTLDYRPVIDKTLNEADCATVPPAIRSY
T2 sequence (P21913 31-282): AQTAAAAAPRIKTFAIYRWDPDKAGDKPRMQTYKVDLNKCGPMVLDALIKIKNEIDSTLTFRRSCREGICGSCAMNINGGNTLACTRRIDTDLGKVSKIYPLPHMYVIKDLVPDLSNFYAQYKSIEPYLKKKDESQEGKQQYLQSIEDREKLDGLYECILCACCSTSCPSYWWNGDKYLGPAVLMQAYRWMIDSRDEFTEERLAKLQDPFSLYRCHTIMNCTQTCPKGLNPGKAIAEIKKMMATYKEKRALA
T2 sequence (Q641Z9 30-169 limits assumed): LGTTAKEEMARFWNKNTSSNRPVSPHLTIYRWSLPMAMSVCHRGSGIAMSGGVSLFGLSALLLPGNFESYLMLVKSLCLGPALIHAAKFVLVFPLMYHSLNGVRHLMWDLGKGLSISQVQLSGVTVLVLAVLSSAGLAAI
T2 sequence (Q6PCT8 57-159): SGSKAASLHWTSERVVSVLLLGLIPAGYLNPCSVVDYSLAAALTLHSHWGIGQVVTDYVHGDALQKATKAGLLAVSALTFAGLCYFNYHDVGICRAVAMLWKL

As to `COc1cccc2c1C(=O)c1c(O)c3c(c(O)c1C2=O)C[C@@](O)(C(C)=O)C[C@@H]3O[C@H]1C[C@H](NC[C@H]2C(=O)O[C@@H]3C[C@@]4(C)CCCC(C)=C4C[C@@H]32)[C@H](O)[C@H](C)O1` [Compound 3b], the “Effect on glycolytic function (extracellular acidification rate)” value in series [1] is listed as “most pronounced ability to reduce the acidification rate of the medium by cells”. The IC50 in series [2] (MTT, 72 h) amounted to 1010 ± 10 nM; in the series on A549 (lung carcinoma) (MTT, 72 h), 1420 ± 50 nM; in series [3] (setting [8]), 6370 ± 240 nM; in the series with MCF7 (breast cancer) (MTT, 72 h), 1240 ± 230 nM; in series [5] (MTT) it was 590 ± 50 nM. Moreover, the “Work of Respiratory Chain Complexes, % Decrease in OCR of Control, IV” value (“Work … % Decrease in OCR of Control, IV” below) in [4] is “— (“—” indicates activity absence for compounds (≤10%) in a particular test)”. Also, the “Mitochondrial Swelling, % of Ca2+-Induced Swelling” value (“Mitochondrial Swelling, %” for short) in the series with rat heart mitochondria is 26.45 ± 7.14%.
Regarding `COc1cccc2c1C(=O)c1c(O)c3c(c(O)c1C2=O)CC(O)(C(=O)CO)CC3OC1CC(NCC2C(=O)OC3CC4(C)CCCC(C)C45OC5C32)C(O)C(C)O1` (stereo not shown) [Compound 5a], the “Effect on glycolytic function (extracellular acidification rate)” value in series [1] is given as “most pronounced ability to reduce the acidification rate of the medium by cells”. The half-maximal inhibitory concentration (IC50) in series [2] (MTT, 72 h) was 2520 ± 20 nM; in the series with A549 (lung carcinoma) (MTT, 72 h), 4520 ± 570 nM; in series [3] (setting [8]), 4500 ± 320 nM; with MCF7 (breast cancer) (MTT, 72 h) it was 3030 ± 70 nM; in series [5] (MTT), 2470 ± 70 nM. The “Work of Respiratory Chain Complexes, % Decrease in OCR of Control, II” value (“Work … % Decrease in OCR of Control, II” below) in [6] is recorded as “— (“—” indicates activity absence for compounds (≤10%) in a particular test)”. Further, the “Work … % Decrease in OCR of Control, IV” value in series [4] was 23.99 ± 4.41%. Besides, the “Mitochondrial Swelling, %” value in the series with rat heart mitochondria is “— (“—” indicates activity absence for compounds (≤10%) in a particular test)”.
As for `COc1cccc2c1C(=O)c1c(O)c3c(c(O)c1C2=O)C[C@@](O)(C(=O)CO)C[C@@H]3O[C@H]1C[C@H](N)[C@H](O)[C@H](C)O1` [a, doxorubicin, reference compound], the IC50 in series [2] (Homo sapiens, HCT-116, 72 h, MTT, 72 h) came out at 140 ± 10 nM; in the series on A549 (lung carcinoma) (Homo sapiens, A549, 72 h, MTT, 72 h), 380 ± 20 nM; in series [3] (Homo sapiens, HEK293, 72 h, MTT, 72 h, non-transformed cells), 6780 ± 760 nM; in the series with MCF7 (breast cancer) (Homo sapiens, MCF7, 72 h, MTT, 72 h), 460 ± 30 nM; in series [5] (Homo sapiens, MTT), 290 ± 20 nM. Further, the “Work … % Decrease in OCR of Control, II” value was 70.54 ± 0.64% in series [6] and “more than 70%” in series [6] (listed as doxorubicin). In [4], the “Work … % Decrease in OCR of Control, IV” value is listed as 37.73 ± 0.34%. Also, the “% of MDA relative to control” value in series [7] is recorded as 236.68 ± 13.06%. Further, the “Mitochondrial Swelling, %” value in the series on rat heart mitochondria came out at 116.20 ± 10.98%.
Molecule `COc1cccc2c1C(=O)c1c(O)c3c(c(O)c1C2=O)C[C@@](O)(C(=O)CO)C[C@@H]3O[C@H]1C[C@H](NC[C@H]2C(=O)O[C@@H]3CC4=CCC[C@H](C)[C@@]4(C)[C@@H](O)[C@@H]32)[C@H](O)[C@H](C)O1` [Compound 7a, (8S,10S)-6,8,11-Trihydroxy-10-(((2R,4S,5S,6S)-5-hydroxy-4-((((3S,3aS,4S,4aR,5S,9aR)-4-hydroxy-4a,5-dimethyl-2-oxo-2,3,3a,4,4a,5,6,7,9,9a-decahydronaphtho[2,3-b]furan-3-yl)methyl)amino)-6-methyltetrahydro-2H-pyran-2-yl)oxy)-8-(2-hydroxyacetyl)-1-methoxy-7,8,9,10-tetrahydrotetracene-5,12-dione] yielded a melting point of 170 to 175 °C. The IC50 in series [2] (Homo sapiens, HCT-116, 72 h) was determined as 920 nM. The “Work … % Decrease in OCR of Control, II” value in [6] is 33.21 ± 3.84%. Further, the IC50 in the series on A549 (lung carcinoma) (Homo sapiens, A549, 72 h) is 5430 ± 160 nM. For the same molecule, the IC50 in [3] (Homo sapiens, HEK293, 72 h) was determined as 10500 ± 880 nM. In addition, in [4], the “Work … % Decrease in OCR of Control, IV” value turned out to be 38.16 ± 0.84%. The IC50 in the series with MCF7 (breast cancer) (Homo sapiens, MCF7, 72 h) was 6030 ± 110 nM. For the same molecule, the “Mitochondrial Swelling, %” value with rat heart mitochondria is “— (“—” indicates activity absence for compounds (≤10%) in a particular test)”. The IC50 in series [5] (Homo sapiens) turned out to be 4220 ± 100 nM.
For `COc1cccc2c1C(=O)c1c(O)c3c(c(O)c1C2=O)C[C@@](O)(C(C)=O)C[C@@H]3O[C@H]1C[C@H](N)[C@H](O)[C@H](C)O1` [b, daunorubicin, reference compound], the IC50 turned out to be 120 nM in series [2] (Homo sapiens, HCT-116, 72 h); 330 ± 10 nM with A549 (lung carcinoma) (Homo sapiens, A549, 72 h); 12300 ± 1170 nM in series [3] (Homo sapiens, HEK293, 72 h); 840 ± 170 nM in the series with MCF7 (breast cancer) (Homo sapiens, MCF7, 72 h); 630 ± 30 nM in series [5] (Homo sapiens). The “Work … % Decrease in OCR of Control, II” value in [6] was 72.12 ± 0.96%; in series [6] (listed as daunorubicin), “more than 70%”. Moreover, the “Work … % Decrease in OCR of Control, IV” value in [4] is given as “— (“—” indicates activity absence for compounds (≤10%) in a particular test)”. In series [7], the “% of MDA relative to control” value is 226.05 ± 6.60%. Also, the “Mitochondrial Swelling, %” value with rat heart mitochondria is recorded as 40.98 ± 3.86%.

For orientation: IC50 means the concentration that inhibits the measured activity by half. The term melting point denotes the temperature, or range, at which the solid turns liquid.
